Measurements reported in patent US11180462B2, “Microbiocidal oxadiazole derivatives” (SYNGENTA PARTICIPATIONS AG, priority 2015, dated 2021).

Experiments:
[1] = system: Glomerella lagenarium (Colletotrichum lagenarium); experiment: Fungicidal activity against Glomerella lagenarium (Colletotrichum lagenarium) liquid culture / cucumber / preventative (anthracnose); type: cell-based; conditions: Colletotrichum orbiculare; 20 ppm in the applied formulation; liquid culture (PDB), growth inhibition measured photometrically after 3 to 4 days; compared to untreated control; read-out: disease control
Summary of the method: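 Photometric read-out of fungal growth after 2–7 days, expressed as percent antifungal activity versus untreated check. Cryo-stored conidia in PDB; compound at 20 ppm; dark, 24 °C, 96% RH.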

[2] = system: Puccinia recondita f. Sp. Tritici; experiment: Fungicidal activity against Puccinia recondita f. sp. tritici / wheat / leaf disc preventative (brown rust); type: in vivo; conditions: foliar, 200 ppm in the applied formulation, wheat leaf segments, preventative, compared to untreated control leaf disks, read-out: disease control
Summary of the method: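 Preventative leaf-segment test, wheat cv. Kanzler on water agar. Spray compound at 200 ppm, inoculate with spores 1 day later; 19° C., 75% rh, 12/12 h light. Read-out: % disease control vs untreated, 7 to 9 days after application.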

[3] = system: Puccinia recondita f. Sp. Tritici; experiment: Fungicidal activity against Puccinia recondita f. sp. tritici / wheat / leaf disc curative (brown rust); type: in vivo; conditions: foliar, 24 h, 200 ppm in the applied formulation, wheat leaf segments, curative (applied 1 day after inoculation), compared to untreated control leaf disks, read-out: disease control
Protocol: Leaf disks or leaf segments of various plant species are cut from plants grown in a greenhouse. The cut leaf disks or segments are placed in multiwell plates (24-well format) onto water agar. The leaf disks are sprayed with a test solution before (preventative) or after (curative) inoculation. Compounds to be tested are prepared as DMSO solutions (max. 10 mg/ml) which are diluted to the appropriate concentration with 0.025% Tween20 just before spraying. The inoculated leaf disks or segments are incubated under defined conditions (temperature, relative humidity, light, etc.) according to the respective test system. A single evaluation of disease level is carried out 3 to 14 days after inoculation, depending on the pathosystem. Percent disease control relative to the untreated check leaf disks or segments is then calculated.
Fungicidal Activity Against Puccinia recondita f. Sp. Tritici/Wheat/Leaf Disc Curative (Brown Rust)
Wheat leaf segments cv. Kanzler are placed on agar in multiwell plates (24-well format). The leaf segments are then inoculated with a spore suspension of the fungus. Plates were stored in darkness at 19° C. and 75% relative humidity. The formulated test compound diluted in water was applied 1 day after inoculation. The leaf segments were incubated at 19° C. and 75% relative humidity under a light regime of 12 hours light/12 hours darkness in a climate cabinet and the activity of a compound was assessed as percent disease control compared to untreated when an appropriate level of disease damage appears in untreated check leaf segments (6 to 8 days after application).
The following compounds at 200 ppm in the applied formulation give at least 80% disease control in this test when compared to untreated control leaf disks under the same conditions, which show extensive disease development.

Row | Structure (SMILES) | inhibition of growth at 20 ppm [1] [%] | pest or weed control at 200 ppm [2] [%] | pest or weed control at 200 ppm [3] [%]
1 | CCCC(C)(C)C(=O)N(Cc1ccc(-c2noc(C(F)(F)F)n2)cc1)OC [Compound 1.10, N-methoxy-2,2-dimethyl-N-[[4-[5-(trifluoromethyl)-1,2,4-oxadiazol-3-yl]phenyl]methyl]-pentanamide] | ≥ 80 | ≥ 80 | ≥ 80
2 | CON(Cc1ccc(-c2noc(C(F)(F)F)n2)cc1)C(=O)c1cccc(C(F)(F)F)c1 [Compound 1.13, N-methoxy-3-(trifluoromethyl)-N-[[4-[5-(trifluoromethyl)-1,2,4-oxadiazol-3-yl]phenyl]methyl]-benzamide] | ≥ 80 |  | ≥ 80
3 | CON(Cc1ccc(-c2noc(C(F)(F)F)n2)cc1)C(=O)C1CC1c1ccccc1 (centres unmarked) [Compound 1.25, N-methoxy-2-phenyl-N-[[4-[5-(trifluoromethyl)-1,2,4-oxadiazol-3-yl]phenyl]methyl]-cyclopropane-carboxamide] | ≥ 80 | ≥ 80 | ≥ 80
4 | CON(Cc1ccc(-c2noc(C(F)(F)F)n2)cc1)C(=O)c1cccc2ccccc12 [Compound 1.37] | ≥ 80 |  | ≥ 80
5 | CON(Cc1ccc(-c2noc(C(F)(F)F)n2)cc1)C(=O)Cc1ccc(C#N)cc1 [Compound 1.52, 2-(4-cyanophenyl)-N-methoxy-N-[[4-[5-(trifluoromethyl)-1,2,4-oxadiazol-3-yl]phenyl]methyl]-acetamide] |  | ≥ 80 | ≥ 80
6 | O=C(Cc1ccc(Cl)cc1)N(Cc1ccc(-c2noc(C(F)(F)F)n2)cc1)C1CC1 [Compound 1.127, 2-(4-chlorophenyl)-N-cyclopropyl-N-[[4-[5-(trifluoromethyl)-1,2,4-oxadiazol-3-yl]phenyl]methyl]-acetamide] | ≥ 80 | ≥ 80 | ≥ 80
7 | O=C(CCCCC(F)(F)F)N(Cc1ccc(-c2noc(C(F)(F)F)n2)cc1)C1CC1 [Compound 1.131, N-cyclopropyl-6,6,6-trifluoro-N-[[4-[5-(trifluoromethyl)-1,2,4-oxadiazol-3-yl]phenyl]methyl]-hexanamide] | ≥ 80 |  | ≥ 80
8 | C#CCN(Cc1ccc(-c2noc(C(F)(F)F)n2)cc1)C(=O)C(C)(C)CCC [Compound 1.153, 2,2-dimethyl-N-prop-2-ynyl-N-[[4-[5-(trifluoromethyl)-1,2,4-oxadiazol-3-yl]phenyl]methyl]-pentanamide] | ≥ 80 |  | ≥ 80
9 | C#CCN(Cc1ccc(-c2noc(C(F)(F)F)n2)cc1)C(=O)C1CCSCC1 [Compound 1.188, N-prop-2-ynyl-N-[[4-[5-(trifluoromethyl)-1,2,4-oxadiazol-3-yl]phenyl]methyl]-tetrahydrothiopyran-4-carboxamide] |  | ≥ 80 | ≥ 80
10 | CCCON(Cc1ccc(-c2noc(C(F)(F)F)n2)cc1)C(=O)C1OCCO1 [Compound 1.317, N-propoxy-N-[[4-[5-(trifluoromethyl)-1,2,4-oxadiazol-3-yl]phenyl]methyl]-1,3-dioxolane-2-carboxamide] | ≥ 80 |  | ≥ 80
11 | COCCN(Cc1ccc(-c2noc(C(F)(F)F)n2)cc1)C(=O)C1(F)CC1 [Compound 1.349, 1-fluoro-N-(2-methoxyethyl)-N-[[4-[5-(trifluoromethyl)-1,2,4-oxadiazol-3-yl]phenyl]methyl]-cyctopropane-carboxamide] | ≥ 80 |  | ≥ 80
12 | CCC(COC)C(=O)N(CCOC)Cc1ccc(-c2noc(C(F)(F)F)n2)cc1 (centres unmarked) [Compound 1.353, N-(2-methoxyethyl)-2-(methoxymethyl)-N-[[4-[5-(trifluoromethyl)-1,2,4-oxadiazol-3-yl]phenyl]methyl]-butanamide] |  | ≥ 80 | ≥ 80
13 | COCCN(Cc1ccc(-c2noc(C(F)(F)F)n2)cc1)C(=O)C1CCCN1C(C)=O (centres unmarked) [Compound 1.357, 1-acetyl-N-(2-methoxyethyl)-N-[[4-[5-(trifluoromethyl)-1,2,4-oxadiazol-3-yl]phenyl]methyl]-pyrrolidine-2-carboxamide] |  | ≥ 80 | ≥ 80
14 | CCC(C)N(Cc1ccc(-c2noc(C(F)(F)F)n2)cc1)C(=O)C1=CCCC1 (centres unmarked) [Compound 1.377, N-sec-butyl-N-[[4-[5-(trifluoromethyl)-1,2,4-oxadiazol-3-yl]phenyl]methyl]-cyclopentene-1-carboxamide] | ≥ 80 |  | ≥ 80
15 | O=C(C1CC1F)N(Cc1ccc(-c2noc(C(F)(F)F)n2)cc1)CC1CCCO1 (centres unmarked) [Compound 1.445, 2-fluoro-N-(tetrahydrofuran-2-ylmethyl)-N-[[4-[5-(trifluoromethyl)-1,2,4-oxadiazol-3-yl]phenyl]methyl]-cyclopropane-carboxamide] | ≥ 80 |  | ≥ 80
16 | O=C(C1CCCC1)N(Cc1ccc(-c2noc(C(F)(F)F)n2)cc1)Cc1ccco1 [Compound 1.455, N-(2-furylmethyl)-N-[[4-[5-(trifluoromethyl)-1,2,4-oxadiazol-3-yl]phenyl]methyl]-cyclopentane-carboxamide] | ≥ 80 |  | ≥ 80
17 | CON(Cc1ccc(-c2noc(C(F)(F)F)n2)cc1)C(=O)CN [Compound 1.788, [2-[methoxy-[[4-[5-(trifluoromethyl)-1,2,4-oxadiazol-3-yl]phenyl]methyl]-amino]-2-oxo-ethyl]ammonium; chloride] |  | ≥ 80 | ≥ 80
18 | CON(Cc1ccc(-c2noc(C(F)(F)F)n2)nc1)C(=O)C1CCCO1 (centres unmarked) [Compound 1.789, N-methoxy-N-[[6-[5-(trifluoromethyl)-1,2,4-oxadiazol-3-yl]-3-pyridyl]methyl]-tetrahydrofuran-2-carboxamide] |  | ≥ 80 | ≥ 80
19 | C=CCOC(=O)N(Cc1ccc(-c2noc(C(F)(F)F)n2)cc1)OC [Compound 2.11, allyl N-methoxy-N-[[4-[5-(trifluoromethyl)-1,2,4-oxadiazol-3-yl]phenyl]methyl]-carbamate] | ≥ 80 |  | ≥ 80
20 | CON(Cc1ccc(-c2noc(C(F)(F)F)n2)cc1)C(=O)OCCF [Compound 2.15, 2-fluoroethyl N-methoxy-N-[[4-[5-(trifluoromethyl)-1,2,4-oxadiazol-3-yl]phenyl]methyl]-carbamate] | ≥ 80 |  | ≥ 80
21 | CON(Cc1ccc(-c2noc(C(F)(F)F)n2)cc1)C(=O)OCCCl [Compound 2.17, 2-chloroethyl N-methoxy-N-[[4-[5-(trifluoromethyl)-1,2,4-oxadiazol-3-yl]phenyl]methyl]-carbamate] | ≥ 80 |  | ≥ 80
22 | C#CCOC(=O)N(Cc1ccc(-c2noc(C(F)(F)F)n2)cc1)OC [Compound 2.20, prop-2-ynyl N-methoxy-N-[[4-[5-(trifluoromethyl)-1,2,4-oxadiazol-3-yl]phenyl]methyl]-carbamate] | ≥ 80 |  | ≥ 80
23 | CNC(=O)CN(C)C(=O)N(C)Cc1ccc(-c2noc(C(F)(F)F)n2)cc1 [Compound 3.68, N-methyl-2-[methyl-[methyl-[[4-[5-(trifluoromethyl)-1,2,4-oxadiazol-3-yl]phenyl]methyl]-carbamoyl]-amino]acetamide] |  | ≥ 80 | ≥ 80
24 | CCN(Cc1ccc(-c2noc(C(F)(F)F)n2)cc1)C(=O)N(C)CC(=O)NC [Compound 3.86, 2-[[ethyl-[[4-[5-(trifluoromethyl)-1,2,4-oxadiazol-3-yl]phenyl]methyl]-carbamoyl]-methyl-amino]-N-methyl-acetamide] |  | ≥ 80 | ≥ 80
25 | CCN(Cc1ccc(-c2noc(C(F)(F)F)n2)cc1)C(=O)N(CC)CC1CC1 [Compound 3.100, 1-(cyclopropylmethyl)-1,3-diethyl-3-[[4-[5-(trifluoromethyl)-1,2,4-oxadiazol-3-yl]phenyl]methyl]urea] | ≥ 80 |  | ≥ 80
